Experimental data published in patent US20250049891A1, “NOVEL PEPTIDE DERIVATIVE DERIVED FROM ADIPONECTIN AND USE THEREOF” (SEOUL NATIONAL UNIVERSITY HOSPITAL, priority 2021, published 2025).
Values after ≈ are worked out from the molar mass of the structure shown. Each block holds one molecule with its values, some of them ahead of it. Peptide text beside a SMILES is read from it.

Experiments:
AMPK phosphorylation [1] = assay: Concentration dependence of AMPK phosphorylation activity (Western blot); format: cell-based, mouse; conditions: 3T3-L1, 0, 0.01, 0.1, 1, 10, and 100 μM, 24 hours
Experimental: A mouse adipocyte cell line 3T3-L1 was treated with the peptide derivative of the present disclosure at a series of concentrations of 0, 0.01, 0.1, 1, 10, and 100 μM and cultured for 24 hours, and then cells were obtained. Thereafter, the protein was extracted and the effect of the peptide derivative on AMPK phosphorylation in a concentration-dependent manner was confirmed by Western blot.

AMPK phosphorylation [2] = assay: AMPK phosphorylation activity in mouse adipocytes (Western blot); format: cell-based; conditions: 3T3-L1, 10 μM, 24 hours; for AMPK phosphorylation activity (fold change): APN5 = 1.0
Experimental: There were confirmed effects of the peptide derivatives of the present disclosure on the expression and receptor activity of adiponectin in mouse adipocytes as a main adiponectin production site. A mouse adipocyte cell line 3T3-L1 was treated with each of the peptide derivatives of the present disclosure at a concentration of 10 μM and cultured for 24 hours, and then cells were obtained. Thereafter, the proteins were extracted and the effect on AMPK phosphorylation, which was responsible for the main downstream signaling of adiponectin, was confirmed by Western blot.

[3] = Metabolic stability test, rat liver microsomes; format: in vitro ADME; conditions: pH 7.4, rat liver microsomes 0.5 mg/ml, NADPH, 37° C., 30 m
Experimental: (§2) Three types of liver microsomes (Human, Rat, Mouse, 0.5 mg/ml), a 0.1 M phosphate buffer solution (pH 7.4), and the peptide derivative of the present disclosure were added at a concentration of 1 μM and pre-cultured at 37° C. for 5 minutes, and then added with an NADPH Regeneration system solution and cultured at 37° C. for 30 minutes. Thereafter, to terminate the reaction, the mixture was added with an acetonitrile solution containing an internal standard material (chlorpropamide), centrifuged for 5 minutes (14,000 rpm, 4° C.), and then the supernatant was injected into the LC-MS/MS system to analyze a substrate drug, and thus metabolic stability was evaluated.
(§3) The amount of substrate remaining through the reaction was analyzed by LC-MS/MS using Agilent 1290 infinity series pump system (Agilent, USA) and Triple Quad 5500 LC-MS/MS system (Applied Biosystems, USA). The HPLC column was used with a Kinetex C18 column (2.1×100 mm, 1.7 μm particle size; Phenomenex, USA), and the mobile phase was distilled water (A) containing 0.1% formic acid and acetonitrile (B) containing 0.1% formic acid. TurboSpray Ionization was used as an ion source for MS/MS, and a triple quadruple type was used as a mass spectrometer. The produced metabolites were quantified using a multiple reaction monitoring (MRM) quantitative mode, and data analysis was performed using Analyst software (version 1.6.1).

CYP2D6 = CYP2D6 (Homo sapiens, UniProt P10635); conditions: microsomes, 10 µM
Sequence of CYP2D6 (P10635 whole entry): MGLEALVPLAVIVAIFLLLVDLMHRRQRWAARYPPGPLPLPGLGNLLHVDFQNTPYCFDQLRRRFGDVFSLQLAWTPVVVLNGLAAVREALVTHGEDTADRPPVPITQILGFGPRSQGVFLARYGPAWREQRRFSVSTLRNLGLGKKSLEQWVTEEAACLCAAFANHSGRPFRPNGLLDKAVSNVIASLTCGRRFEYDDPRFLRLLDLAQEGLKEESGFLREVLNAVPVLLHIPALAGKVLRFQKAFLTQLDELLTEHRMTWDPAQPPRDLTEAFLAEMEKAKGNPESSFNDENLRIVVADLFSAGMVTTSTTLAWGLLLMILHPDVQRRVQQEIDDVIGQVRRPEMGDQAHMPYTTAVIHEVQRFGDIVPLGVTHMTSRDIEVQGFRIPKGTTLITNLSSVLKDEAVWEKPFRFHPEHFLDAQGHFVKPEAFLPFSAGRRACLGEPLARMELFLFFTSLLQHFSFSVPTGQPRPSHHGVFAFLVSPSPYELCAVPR
Experimental: (§1) Metabolites of each CYP isoenzyme indicator drug produced through the reaction were analyzed by LC-MS/MS using the Shimadzu Nexera XR system and TSQ vantage (Thermo).

CYP3A4 = CYP3A4 (Homo sapiens, UniProt P08684); conditions: microsomes, 10 µM
Sequence of CYP3A4 (P08684 whole entry): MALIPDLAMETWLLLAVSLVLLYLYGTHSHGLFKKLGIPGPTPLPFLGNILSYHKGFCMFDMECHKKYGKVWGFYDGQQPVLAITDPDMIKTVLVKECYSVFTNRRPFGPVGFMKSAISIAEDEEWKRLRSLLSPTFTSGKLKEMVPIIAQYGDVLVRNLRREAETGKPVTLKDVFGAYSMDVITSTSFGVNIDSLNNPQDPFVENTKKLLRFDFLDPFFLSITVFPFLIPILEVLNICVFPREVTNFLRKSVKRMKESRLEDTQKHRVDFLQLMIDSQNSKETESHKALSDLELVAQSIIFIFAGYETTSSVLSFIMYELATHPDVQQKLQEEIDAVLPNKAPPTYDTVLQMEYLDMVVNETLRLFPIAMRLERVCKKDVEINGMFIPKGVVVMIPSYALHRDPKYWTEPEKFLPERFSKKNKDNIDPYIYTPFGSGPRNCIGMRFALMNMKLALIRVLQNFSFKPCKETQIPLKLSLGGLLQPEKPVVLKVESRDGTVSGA
Experimental: as §1

CYP2C9 = CYP2C9 (Homo sapiens, UniProt P11712); conditions: microsomes, 10 µM
Sequence of CYP2C9 (P11712 whole entry): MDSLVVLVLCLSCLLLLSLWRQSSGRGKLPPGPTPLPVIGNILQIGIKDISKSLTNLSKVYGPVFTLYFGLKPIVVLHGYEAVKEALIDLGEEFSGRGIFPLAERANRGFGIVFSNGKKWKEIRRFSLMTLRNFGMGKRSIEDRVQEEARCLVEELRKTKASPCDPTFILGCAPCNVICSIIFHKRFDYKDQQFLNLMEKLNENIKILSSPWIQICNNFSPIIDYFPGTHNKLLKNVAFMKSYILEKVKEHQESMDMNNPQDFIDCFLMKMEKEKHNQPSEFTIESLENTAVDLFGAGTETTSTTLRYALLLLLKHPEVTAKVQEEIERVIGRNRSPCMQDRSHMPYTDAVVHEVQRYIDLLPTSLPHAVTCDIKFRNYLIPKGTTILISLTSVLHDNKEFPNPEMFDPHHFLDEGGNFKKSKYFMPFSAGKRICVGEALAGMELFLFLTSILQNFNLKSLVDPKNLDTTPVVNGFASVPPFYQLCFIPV
Experimental: as §1

CYP1A2 = biological target: T1, CYP1A2 (Homo sapiens, UniProt P05177); conditions: microsomes, 10 µM
T1 sequence (P05177 1-516): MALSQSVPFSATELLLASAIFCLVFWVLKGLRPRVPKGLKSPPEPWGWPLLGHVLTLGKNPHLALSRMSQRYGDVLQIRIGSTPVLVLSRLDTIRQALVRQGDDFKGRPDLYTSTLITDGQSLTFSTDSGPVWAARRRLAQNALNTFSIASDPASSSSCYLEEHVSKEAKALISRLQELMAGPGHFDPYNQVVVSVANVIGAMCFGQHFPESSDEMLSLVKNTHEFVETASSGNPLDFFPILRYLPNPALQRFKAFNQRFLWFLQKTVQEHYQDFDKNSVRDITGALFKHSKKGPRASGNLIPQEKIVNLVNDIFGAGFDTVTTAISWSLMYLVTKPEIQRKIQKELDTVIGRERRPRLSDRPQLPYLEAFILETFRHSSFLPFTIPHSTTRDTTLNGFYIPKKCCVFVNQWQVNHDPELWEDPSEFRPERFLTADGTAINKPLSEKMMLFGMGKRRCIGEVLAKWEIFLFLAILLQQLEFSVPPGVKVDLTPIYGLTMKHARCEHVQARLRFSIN
Experimental: as §1

CYP2C19 = CYP2C19 (Homo sapiens, UniProt P33261); conditions: microsomes, 10 µM
Sequence of CYP2C19 (P33261 whole entry): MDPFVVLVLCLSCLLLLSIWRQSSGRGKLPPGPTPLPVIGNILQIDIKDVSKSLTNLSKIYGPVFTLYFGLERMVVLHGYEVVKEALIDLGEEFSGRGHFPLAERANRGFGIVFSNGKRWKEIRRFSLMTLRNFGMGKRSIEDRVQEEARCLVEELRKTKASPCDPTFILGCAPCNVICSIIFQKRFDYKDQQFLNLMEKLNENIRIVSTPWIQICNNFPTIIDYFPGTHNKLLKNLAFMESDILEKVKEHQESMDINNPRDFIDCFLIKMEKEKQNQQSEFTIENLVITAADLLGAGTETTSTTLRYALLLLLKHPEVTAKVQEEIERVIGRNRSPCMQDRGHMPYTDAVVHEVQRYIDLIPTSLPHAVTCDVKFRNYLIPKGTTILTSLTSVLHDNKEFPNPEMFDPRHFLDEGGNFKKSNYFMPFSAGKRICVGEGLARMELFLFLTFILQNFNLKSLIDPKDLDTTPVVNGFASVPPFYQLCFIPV
Experimental: as §1

in vitro [4] = conditions: human, microsomes, pH 7.4
Experimental: as §2
(§4) The HPLC column was used with a Kinetex C18 column (2.1×100 mm, 1.7 μm particle size; Phenomenex, USA), and the mobile phase was distilled water (A) containing 0.1% formic acid and acetonitrile (B) containing 0.1% formic acid. TurboSpray Ionization was used as an ion source for MS/MS, and a triple quadruple type was used as a mass spectrometer. The produced metabolites were quantified using a multiple reaction monitoring (MRM) quantitative mode, and data analysis was performed using Analyst software (version 1.6.1).

[5] = Metabolic stability test, mouse liver microsomes; format: in vitro ADME; conditions: pH 7.4, mouse liver microsomes 0.5 mg/ml, NADPH, 37° C., 30 m
Experimental: as §2, §3

in vitro [6] = conditions: human, plasma
Experimental: (§5) The peptide derivative of the present disclosure was added at a concentration of 1 μM to two types of plasma (human, rat), placed in each tube, and then cultured at 37° C. for time of 0, 30, 60, 120, and 240 minutes. The tube containing plasma was taken out every time, added with an acetonitrile solution containing an internal standard material (chlorpropamide), vortexed for 5 minutes, and centrifuged for 5 minutes (14,000 rpm, 4° C.). Thereafter, the plasma stability of the peptide derivative was evaluated by injecting the supernatant into an LC-MS/MS system and analyzing the drug at each time period. At this time, Procaine and Enalapril were used as reference materials for accuracy during a general plasma stability test.
(§6) After the reaction, the amount of drug remaining in each tube was analyzed by LC-MS/MS using Shimadzu Nexera XR system and TSQ vantage (Thermo). The HPLC column was used with a Luna C18 column (2.0×50 mm, 3 μm particle size; Phenomenex, US), and the mobile phase was distilled water (A) containing 0.1% formic acid and acetonitrile (B) containing 0.1% formic acid. Data analysis was performed using Xcalibur (version 1.6.1). In the result analysis, the plasma stability of each peptide derivative was expressed as % remaining for each time period for the sample without culture.

physchem = conditions: pH 7.4, aqueous buffer, kinetic from dmso stock
Experimental: (§7) A PRISMA HT solution was diluted in distilled water at a ratio of 1:40, and then used as a test buffer by adjusting the pH to 7.4.
(§8) 10 mL of the prepared test material was diluted in 190 μL of isopropyl alcohol and prepared. In addition, 75 mL of the test solution and 70 mL of isopropyl alcohol were mixed to be used as a blank sample, and 5 mL of the test material diluted in isopropyl alcohol was added to the blank sample. After the diluted sample was mixed, the absorbance was measured and used as an initial test value. […] Thereafter, the precipitate was removed from the sample using a filter plate, 74 mL of the filtered sample was added with 75 mL of isopropyl alcohol, and then the absorbance was measured and used as the sample value.
(§9) The solubility value of the test material was analyzed using a msol Explore (Solubility explorer program) after measuring the absorbance of each sample through a microplate reader. The average and standard deviation of the experimental values (n=3) repeated three times were calculated using the Excel program.

in vitro [7] = conditions: rat, plasma
Experimental: as §5, §6

[8] = Metabolic stability test, human liver microsomes; conditions: human, microsomes, pH 7.4
Experimental: as §2, §4

[9] = Plasma stability test, human plasma; conditions: human, plasma
Experimental: as §5, §6

[10] = Plasma stability test, rat plasma; conditions: rat, plasma
Experimental: as §5, §6

[11] = system: 3T3-L1 adipocytes, RD muscle cells, keratinocytes, and fibroblasts; assay: Cytotoxicity in vitro (MTT); format: cell-based; conditions: 0, 0.1, 1, 10, 100, and 500 μM, 24 hours
Experimental: Using four types of cell lines 3T3-L1 adipocytes, RD muscle cells, keratinocytes, and fibroblasts, each cell was dispensed at 5×10^4 cells per well in a 24-well plate and cultured for 24 hours under each cell culture condition. The medium was discarded, washed with PBS, replaced with a new medium without 10% FBS, treated with the peptide derivative of the present disclosure at different concentrations of 0, 0.1, 1, 10, 100, and 500 μM, and cultured for 24 hours. The medium was carefully removed again and washed with PBS, and then added with an MTT reagent according to a manufacturer's method, reacted at room temperature for 30 minutes, and then absorbance was measured at 450 nm.

adiponectin receptor 1 = biological target: T2, adiponectin receptor 1 (Mus musculus, UniProt Q91VH1); assay: AMPK phosphorylation activity after knockdown of adiponectin receptor 1 (siRNA, Western blot); format: cell-based; conditions: 3T3-L1, adiponectin receptor 1 siRNA, 10 μM, 24 hours
T2 construct: a mouse adipocyte cell line 3T3-L1 was treated with siRNA of an adiponectin receptor 1 to be knocked down; endogenous in cells; host or cells: 3T3-L1 mouse adipocyte cell line
T2 sequence (Q91VH1 1-375): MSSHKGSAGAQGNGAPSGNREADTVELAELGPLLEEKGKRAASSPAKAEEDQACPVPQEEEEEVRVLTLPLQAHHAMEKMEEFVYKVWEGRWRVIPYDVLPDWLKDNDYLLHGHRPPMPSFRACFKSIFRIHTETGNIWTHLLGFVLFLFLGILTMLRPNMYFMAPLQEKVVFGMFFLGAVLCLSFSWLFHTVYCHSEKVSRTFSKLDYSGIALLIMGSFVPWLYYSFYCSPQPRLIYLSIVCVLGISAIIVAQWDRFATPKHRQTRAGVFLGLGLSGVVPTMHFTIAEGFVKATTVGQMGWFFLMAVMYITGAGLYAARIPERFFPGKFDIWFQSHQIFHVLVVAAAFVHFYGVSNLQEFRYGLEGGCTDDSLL
Experimental: In order to verify whether the peptide derivative of the present disclosure bound to an adiponectin receptor 1, a mouse adipocyte cell line 3T3-L1 was treated with siRNA of an adiponectin receptor 1 to be knocked down, and each of the peptide derivatives of the present disclosure was treated at 10 μM and cultured for 24 hours, and then cells were obtained. Thereafter, the proteins were extracted and it was confirmed by Western blot whether AMPK phosphorylation activity, which had been increased by the peptide derivatives, was lost.

Solubility test = conditions: PRISMA HT test buffer, pH 7.4, aqueous buffer, kinetic from dmso stock
Experimental: as §7, §8, §9

- remaining at 0.5 h, 1 μM [3]: 85.8%
- CYP inhibition (% of control activity) CYP2D6 (CYP2D6): 86.1 % of control activity
- CYP inhibition (% of control activity) CYP3A4 (CYP3A4): 95.5 % of control activity
- CYP inhibition (% of control activity) CYP2C9 (CYP2C9): 96.9 % of control activity
- CYP inhibition (% of control activity) CYP1A2 (CYP1A2): 81.7 % of control activity
- CYP inhibition (% of control activity) CYP2C19 (CYP2C19): 87.2 % of control activity
- remaining at 0.5 h, 1 μM (in vitro [4]): 93.8%
- remaining at 0.5 h, 1 μM [5]: 96.6%
- remaining at 0.5 h, 1 μM (in vitro [6]): 17.6%
- remaining at 2 h, 1 μM (in vitro [6]): 3.1%
- solubility at 24 h (physchem): 321 µg/mL (≈ 495 µM)
- remaining at 0.5 h, 1 μM (in vitro [7]): > 100%
- remaining at 2 h, 1 μM (in vitro [7]): > 100%
Structure (SMILES): CC(=O)NC(CC(=O)O)C(=O)NC(Cc1ccc(O)cc1)C(=O)NC(Cc1ccc(O)cc1)C(=O)NC(Cc1ccccc1)C(=O)O (stereo not shown) [DS-28, AcNH-DYYF-OH] (Ac-DYYF-OH; configuration not given here)
- concentration dependence of AMPK phosphorylation activity (AMPK phosphorylation [1]): increased AMPK phosphorylation activity in a concentration-dependent manner
- AMPK phosphorylation activity (fold change) (AMPK phosphorylation [2]): 1.9 fold change

Structure (SMILES): CC(C)CC(NC(=O)CN)C(=O)NC(Cc1ccc(O)cc1)C(=O)NC(Cc1ccc(O)cc1)C(=O)N(C)C(Cc1ccccc1)C(N)=O (stereo not shown) [DS-48, NH2-GLYYF(N-Me)-NH2]
- concentration dependence of AMPK phosphorylation activity (AMPK phosphorylation [1]): increased AMPK phosphorylation activity in a concentration-dependent manner
- remaining at 0.5 h, 1 μM [8]: 21.6%
- AMPK phosphorylation activity (fold change) (AMPK phosphorylation [2]): 1.5 fold change
- AMPK phosphorylation activity compared to APN5 (in words) (AMPK phosphorylation [2]; compared to APN5): significant effect of increasing AMPK phosphorylation activity
- remaining at 0.5 h, 1 μM [9]: 1.1%
- remaining at 2 h, 1 μM [9]: < 1%
- remaining at 0.5 h, 1 μM [3]: 2.8%
- remaining at 0.5 h, 1 μM [10]: > 100%
- remaining at 2 h, 1 μM [10]: 84.9%
- cytotoxicity [11]: no toxicity
- remaining at 0.5 h, 1 μM [5]: 20.6%
- AMPK phosphorylation activity after knockdown of the adiponectin receptor 1 (adiponectin receptor 1): decreased the AMPK phosphorylation activity after knockdown of the adiponectin receptor 1
- solubility at 24 h (Solubility test): 334 µg/mL (≈ 495 µM)
